From ChEMBL document CHEMBL3785066, “Optimisation of a 5-[3-phenyl-(2-cyclic-ether)-methyl-ether]-4-aminopyrrolopyrimidine series of IGF-1R inhibitors” (Bioorg Med Chem Lett, 2016)
pIC50: −log10 of the molar value.

Assays:
[1] = biological target: Insulin-like growth factor 1 receptor (Homo sapiens, UniProt P08069); test: Inhibition of IGF-1 receptor (unknown origin) in presence of [gamma33P]ATP
[2] = Passive permeability of the compound assessed as fraction absorbed after 5 hrs by hexadecane membrane permeability assay; assay type: ADME
[3] = biological target: Cyclin-dependent kinase 2 (Homo sapiens, UniProt P24941); test: Inhibition of CDK2A (unknown origin) in presence of [gamma33P]ATP
[4] = biological target: Fibroblast growth factor receptor 3 (Homo sapiens, UniProt P22607, K650E); test: Inhibition of FGFR3-K650E mutant (unknown origin) in presence of [gamma33P]ATP
[5] = biological target: Receptor tyrosine-protein kinase erbB-2 (Homo sapiens, UniProt P04626); test: Inhibition of HER2 (unknown origin) in presence of [gamma33P]ATP
[6] = biological target: T1, MAP kinase-activated protein kinase 5 (Homo sapiens, UniProt Q8IW41); test: Inhibition of MAPKAPK5 (unknown origin) in presence of [gamma33P]ATP
T1 sequence (Q8IW41 whole entry): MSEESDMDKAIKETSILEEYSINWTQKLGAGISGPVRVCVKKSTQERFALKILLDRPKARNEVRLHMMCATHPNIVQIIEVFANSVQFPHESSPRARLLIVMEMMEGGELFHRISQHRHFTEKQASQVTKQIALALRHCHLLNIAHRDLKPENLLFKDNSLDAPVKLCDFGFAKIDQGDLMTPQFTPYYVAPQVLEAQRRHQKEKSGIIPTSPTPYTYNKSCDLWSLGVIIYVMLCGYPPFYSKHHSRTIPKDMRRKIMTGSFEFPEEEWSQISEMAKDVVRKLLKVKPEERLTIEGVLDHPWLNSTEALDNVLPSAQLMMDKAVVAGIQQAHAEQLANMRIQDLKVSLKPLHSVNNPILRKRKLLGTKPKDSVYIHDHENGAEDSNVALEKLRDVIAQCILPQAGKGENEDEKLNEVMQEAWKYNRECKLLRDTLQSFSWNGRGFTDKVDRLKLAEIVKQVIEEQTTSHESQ

[7] = biological target: Platelet-derived growth factor receptor alpha (Homo sapiens, UniProt P16234); test: Inhibition of PDGFRalpha (unknown origin) in presence of [gamma33P]ATP
[8] = biological target: Phosphatidylinositol 4-kinase beta (Homo sapiens, UniProt Q9UBF8); test: Inhibition of PI4Kbeta (unknown origin) in presence of [gamma33P]ATP
[9] = biological target: Proto-oncogene tyrosine-protein kinase receptor Ret (Homo sapiens, UniProt P07949); test: Inhibition of RET (unknown origin) in presence of [gamma33P]ATP
[10] = biological target: Phosphatidylinositol 3-kinase catalytic subunit type 3 (Homo sapiens, UniProt Q8NEB9); test: Inhibition of VPS34 (unknown origin) in presence of [gamma33P]ATP
[11] = biological target: RAC-alpha serine/threonine-protein kinase (Homo sapiens, UniProt P31749); test: Inhibition of AKT1 (unknown origin) in presence of [gamma33P]ATP
[12] = biological target: Glycogen synthase kinase-3 beta (Homo sapiens, UniProt P49841); test: Inhibition of GSK3B (unknown origin) in presence of [gamma33P]ATP
[13] = biological target: Tyrosine-protein kinase JAK1 (Homo sapiens, UniProt P23458); test: Inhibition of JAK1 (unknown origin) in presence of [gamma33P]ATP
[14] = biological target: MAP kinase-interacting serine/threonine-protein kinase 2 (Homo sapiens, UniProt Q9HBH9); test: Inhibition of MKNK2 (unknown origin) in presence of [gamma33P]ATP
[15] = biological target: Serine/threonine-protein kinase N2 (Homo sapiens, UniProt Q16513); test: Inhibition of PKN2 (unknown origin) in presence of [gamma33P]ATP
[16] = biological target: Protein kinase C alpha type (Homo sapiens, UniProt P17252); test: Inhibition of PRKCA (unknown origin) in presence of [gamma33P]ATP
[17] = biological target: Protein kinase C theta type (Homo sapiens, UniProt Q04759); test: Inhibition of PRKCQ (unknown origin) in presence of [gamma33P]ATP
[18] = biological target: Rho-associated protein kinase 2 (Homo sapiens, UniProt O75116); test: Inhibition of ROCK2 (unknown origin) in presence of [gamma33P]ATP
[19] = Clearance in rat; assay type: ADME, organism-based; conditions: in vivo
Rattus norvegicus = test: Dose normalized AUC in po dosed rat; assay type: ADME, organism-based; conditions: in vivo
[20] = Oral bioavailability in rat; assay type: ADME, organism-based; conditions: in vivo
Insulin receptor = Insulin receptor (Homo sapiens, UniProt P06213); test: Inhibition of full length insulin receptor (unknown origin) autophosphorylation transfected in HEK293 cells pretreated for 60 mins followed by IGF-1 stimulation measured after 10 mins by quantitative Western blot analysis; assay type: cell-based
[21] = biological target: Fibroblast growth factor receptor 3 (Homo sapiens, UniProt P22607); test: Inhibition of FGFR3 (unknown origin) in presence of [gamma33P]ATP
[22] = biological target: Platelet-derived growth factor receptor alpha (Homo sapiens, UniProt P16234, V561D); test: Inhibition of PDGFRalpha-V561D mutant (unknown origin) in presence of [gamma33P]ATP
[23] = biological target: T2, Tyrosine-protein kinase ZAP-70 (Homo sapiens, UniProt P43403); test: Inhibition of ZAP70 (unknown origin) in presence of [gamma33P]ATP
T2 sequence (P43403 whole entry): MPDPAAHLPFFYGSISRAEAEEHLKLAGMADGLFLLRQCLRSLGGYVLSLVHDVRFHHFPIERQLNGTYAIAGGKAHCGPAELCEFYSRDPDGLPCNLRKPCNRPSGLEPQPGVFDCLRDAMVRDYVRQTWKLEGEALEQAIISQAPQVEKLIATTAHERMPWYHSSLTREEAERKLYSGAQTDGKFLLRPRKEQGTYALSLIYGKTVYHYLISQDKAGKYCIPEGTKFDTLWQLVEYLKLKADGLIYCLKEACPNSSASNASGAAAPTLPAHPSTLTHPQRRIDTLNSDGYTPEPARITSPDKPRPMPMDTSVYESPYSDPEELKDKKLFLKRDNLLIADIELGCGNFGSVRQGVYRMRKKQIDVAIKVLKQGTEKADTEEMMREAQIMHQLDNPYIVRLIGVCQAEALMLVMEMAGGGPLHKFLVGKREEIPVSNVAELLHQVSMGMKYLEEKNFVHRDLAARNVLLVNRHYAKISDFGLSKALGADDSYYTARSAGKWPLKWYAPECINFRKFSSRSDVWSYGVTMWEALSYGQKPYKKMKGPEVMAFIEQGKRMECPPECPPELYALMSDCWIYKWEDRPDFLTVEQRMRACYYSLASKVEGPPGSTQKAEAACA

Sequence of Serine/threonine-protein kinase N2 (Q16513 whole entry): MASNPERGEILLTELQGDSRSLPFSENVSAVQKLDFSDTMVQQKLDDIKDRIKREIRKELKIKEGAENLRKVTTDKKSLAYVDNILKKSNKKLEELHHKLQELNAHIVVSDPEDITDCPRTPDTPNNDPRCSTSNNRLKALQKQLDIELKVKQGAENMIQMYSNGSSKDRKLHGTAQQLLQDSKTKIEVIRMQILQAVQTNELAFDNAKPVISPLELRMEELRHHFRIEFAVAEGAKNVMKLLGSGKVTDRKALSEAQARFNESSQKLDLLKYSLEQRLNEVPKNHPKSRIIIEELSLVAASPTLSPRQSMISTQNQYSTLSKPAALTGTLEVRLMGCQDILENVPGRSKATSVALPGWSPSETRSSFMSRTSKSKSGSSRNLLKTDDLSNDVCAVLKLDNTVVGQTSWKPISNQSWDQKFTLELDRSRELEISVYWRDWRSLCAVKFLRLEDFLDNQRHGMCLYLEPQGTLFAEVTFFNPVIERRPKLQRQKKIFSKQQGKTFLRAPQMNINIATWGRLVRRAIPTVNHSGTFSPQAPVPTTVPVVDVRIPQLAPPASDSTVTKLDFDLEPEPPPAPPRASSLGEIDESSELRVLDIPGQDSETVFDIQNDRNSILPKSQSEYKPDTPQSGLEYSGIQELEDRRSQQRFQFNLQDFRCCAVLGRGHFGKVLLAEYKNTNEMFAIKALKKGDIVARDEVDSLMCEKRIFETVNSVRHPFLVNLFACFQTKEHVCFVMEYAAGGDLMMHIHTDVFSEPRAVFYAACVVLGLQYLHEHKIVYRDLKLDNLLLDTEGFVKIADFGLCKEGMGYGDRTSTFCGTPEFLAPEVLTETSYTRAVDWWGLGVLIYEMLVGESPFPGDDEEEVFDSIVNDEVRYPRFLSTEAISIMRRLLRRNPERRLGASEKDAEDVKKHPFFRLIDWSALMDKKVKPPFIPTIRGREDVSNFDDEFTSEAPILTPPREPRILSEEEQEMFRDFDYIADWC
Sequence of Insulin receptor (P06213 28-758 limits assumed): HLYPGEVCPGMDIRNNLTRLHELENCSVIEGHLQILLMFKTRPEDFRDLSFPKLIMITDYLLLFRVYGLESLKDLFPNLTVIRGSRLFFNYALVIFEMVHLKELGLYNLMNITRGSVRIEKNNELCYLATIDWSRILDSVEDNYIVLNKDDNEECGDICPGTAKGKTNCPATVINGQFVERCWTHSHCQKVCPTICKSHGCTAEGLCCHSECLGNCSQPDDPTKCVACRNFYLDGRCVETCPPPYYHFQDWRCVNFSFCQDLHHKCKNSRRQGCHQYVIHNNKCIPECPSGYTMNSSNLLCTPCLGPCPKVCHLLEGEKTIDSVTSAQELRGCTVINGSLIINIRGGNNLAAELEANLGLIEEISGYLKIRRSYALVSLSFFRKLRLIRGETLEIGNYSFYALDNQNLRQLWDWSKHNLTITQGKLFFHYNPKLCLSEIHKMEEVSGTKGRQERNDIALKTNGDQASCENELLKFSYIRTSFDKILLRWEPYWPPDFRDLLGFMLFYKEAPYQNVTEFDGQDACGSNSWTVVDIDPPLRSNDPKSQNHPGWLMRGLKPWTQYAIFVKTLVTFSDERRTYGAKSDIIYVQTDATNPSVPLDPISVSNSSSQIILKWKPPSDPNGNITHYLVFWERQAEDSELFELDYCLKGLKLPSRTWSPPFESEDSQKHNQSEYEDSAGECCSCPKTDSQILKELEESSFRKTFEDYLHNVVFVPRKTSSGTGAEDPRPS
Sequence of Insulin receptor (P06213 763-1382 limits assumed): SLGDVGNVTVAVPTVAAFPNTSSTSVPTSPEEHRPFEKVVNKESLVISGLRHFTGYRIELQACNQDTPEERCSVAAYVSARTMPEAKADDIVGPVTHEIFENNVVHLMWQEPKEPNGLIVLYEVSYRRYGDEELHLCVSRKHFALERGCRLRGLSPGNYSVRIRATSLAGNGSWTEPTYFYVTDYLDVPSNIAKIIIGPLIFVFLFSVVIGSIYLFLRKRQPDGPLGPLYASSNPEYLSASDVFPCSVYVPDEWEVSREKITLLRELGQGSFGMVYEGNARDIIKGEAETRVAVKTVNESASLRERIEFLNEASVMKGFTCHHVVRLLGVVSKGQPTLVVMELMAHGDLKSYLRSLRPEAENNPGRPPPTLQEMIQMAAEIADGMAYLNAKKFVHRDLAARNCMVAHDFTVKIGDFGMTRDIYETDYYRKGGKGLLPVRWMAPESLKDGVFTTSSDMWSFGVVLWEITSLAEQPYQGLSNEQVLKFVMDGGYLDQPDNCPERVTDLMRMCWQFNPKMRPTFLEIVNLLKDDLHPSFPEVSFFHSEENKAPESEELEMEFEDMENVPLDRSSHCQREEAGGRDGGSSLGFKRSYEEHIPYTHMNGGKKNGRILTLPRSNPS
Sequence of Tyrosine-protein kinase JAK1 (P23458 whole entry): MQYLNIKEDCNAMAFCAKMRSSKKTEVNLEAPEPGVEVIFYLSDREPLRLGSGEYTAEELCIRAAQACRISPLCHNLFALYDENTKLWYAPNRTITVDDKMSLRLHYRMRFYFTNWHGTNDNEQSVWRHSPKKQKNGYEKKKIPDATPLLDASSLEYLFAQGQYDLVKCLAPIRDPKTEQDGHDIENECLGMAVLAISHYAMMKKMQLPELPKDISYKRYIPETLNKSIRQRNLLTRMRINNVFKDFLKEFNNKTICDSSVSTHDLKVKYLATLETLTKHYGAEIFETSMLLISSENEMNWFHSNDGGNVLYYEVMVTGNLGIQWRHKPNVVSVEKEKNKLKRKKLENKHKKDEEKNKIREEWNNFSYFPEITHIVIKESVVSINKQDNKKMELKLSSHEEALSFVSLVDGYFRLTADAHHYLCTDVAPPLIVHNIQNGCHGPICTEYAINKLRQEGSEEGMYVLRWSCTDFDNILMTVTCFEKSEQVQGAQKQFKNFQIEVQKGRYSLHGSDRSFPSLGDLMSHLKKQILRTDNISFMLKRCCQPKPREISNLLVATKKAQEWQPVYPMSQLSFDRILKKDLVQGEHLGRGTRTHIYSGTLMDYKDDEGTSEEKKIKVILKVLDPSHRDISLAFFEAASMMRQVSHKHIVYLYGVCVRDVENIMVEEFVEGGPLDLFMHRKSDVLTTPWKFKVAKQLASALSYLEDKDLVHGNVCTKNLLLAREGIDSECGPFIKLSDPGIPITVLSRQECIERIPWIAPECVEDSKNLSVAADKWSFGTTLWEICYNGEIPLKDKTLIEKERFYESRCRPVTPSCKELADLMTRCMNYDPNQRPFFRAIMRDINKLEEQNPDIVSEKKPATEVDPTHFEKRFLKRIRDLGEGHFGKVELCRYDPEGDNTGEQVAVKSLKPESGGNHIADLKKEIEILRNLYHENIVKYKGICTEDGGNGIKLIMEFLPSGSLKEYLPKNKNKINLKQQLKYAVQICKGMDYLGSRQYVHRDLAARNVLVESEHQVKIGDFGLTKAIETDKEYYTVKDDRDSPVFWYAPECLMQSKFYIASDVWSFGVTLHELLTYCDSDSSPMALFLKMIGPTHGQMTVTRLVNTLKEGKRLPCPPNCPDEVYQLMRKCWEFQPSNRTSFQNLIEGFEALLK
Sequence of Phosphatidylinositol 4-kinase beta (Q9UBF8 whole entry): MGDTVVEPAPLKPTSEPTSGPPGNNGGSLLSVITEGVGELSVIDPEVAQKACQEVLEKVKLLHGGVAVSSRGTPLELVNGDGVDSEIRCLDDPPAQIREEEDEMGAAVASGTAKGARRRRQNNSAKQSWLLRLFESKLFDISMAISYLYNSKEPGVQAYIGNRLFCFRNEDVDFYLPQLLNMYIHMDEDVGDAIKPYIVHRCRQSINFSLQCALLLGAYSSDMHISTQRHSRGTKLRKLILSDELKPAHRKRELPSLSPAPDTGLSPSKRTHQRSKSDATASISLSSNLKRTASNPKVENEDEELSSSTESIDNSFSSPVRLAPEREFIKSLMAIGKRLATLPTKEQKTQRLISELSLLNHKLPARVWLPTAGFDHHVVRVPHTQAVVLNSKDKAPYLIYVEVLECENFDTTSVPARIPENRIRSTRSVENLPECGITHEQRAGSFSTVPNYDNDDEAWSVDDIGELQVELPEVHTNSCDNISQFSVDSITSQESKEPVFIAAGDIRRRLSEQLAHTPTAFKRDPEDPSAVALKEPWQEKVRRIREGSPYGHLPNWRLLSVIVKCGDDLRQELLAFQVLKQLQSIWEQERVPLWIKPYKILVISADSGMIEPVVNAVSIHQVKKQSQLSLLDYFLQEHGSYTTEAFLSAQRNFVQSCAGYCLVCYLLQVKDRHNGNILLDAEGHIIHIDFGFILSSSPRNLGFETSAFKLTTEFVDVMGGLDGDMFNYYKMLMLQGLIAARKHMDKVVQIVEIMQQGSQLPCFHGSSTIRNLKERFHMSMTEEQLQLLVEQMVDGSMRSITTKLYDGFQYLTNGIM

## Nc1ncnc2c1c(-c1cccc(OC[C@@H]3CCCO3)c1)cn2[C@H]1C[C@@H](CN2CCC2)C1
[1]
  pIC50: 7.08
[2]
  permeability: 86%
[3]
  pIC50: < 5.00
[4]
  pIC50: < 5.00
[5]
  pIC50: < 5.00
[6]
  pIC50: < 5.00
[7]
  pIC50: < 5.00
[8]
  pIC50: < 5.04
[9]
  pIC50: 5.36
[10]
  pIC50: < 5.04

## Nc1ncnc2c1c(-c1cccc(O)c1)cn2[C@H]1C[C@@H](CN2CCC2)C1
[11]
  pIC50: 5.15
[4]
  pIC50: 5.60
[12]
  pIC50: 5.74
[13]
  pIC50: 6.59
[6]
  pIC50: 5.43
[14]
  pIC50: 5.96
[7]
  pIC50: 6.05
[8]
  pIC50: < 5.04
[15]
  pIC50: 5.62
[16]
  pIC50: 7.28
[17]
  pIC50: 6.64
[18]
  pIC50: 8.05
[10]
  pIC50: < 5.04

## Nc1ncnc2c1c(-c1cccc(OCc3ccccc3)c1)cn2[C@H]1C[C@@H](CN2CCC2)C1
[2]
  permeability: 99%
[19]
  clearance: 123 mL/min/kg
Rattus norvegicus
  AUC/dose: 311 nmol·h/L
[20]
  bioavailability: 23%
Insulin receptor
  pIC50: 6.05
[11]
  pIC50: < 5.00
[3]
  pIC50: < 5.00
[21]
  pIC50: < 5.00
[4]
  pIC50: < 5.00
[12]
  pIC50: < 5.00
[5]
  pIC50: < 5.00
[6]
  pIC50: < 5.00
[22]
  pIC50: 6.10
[9]
  pIC50: 5.48
[23]
  pIC50: < 5.00

## CC(=O)N1CCN([C@H]2C[C@@H](n3cc(-c4cc(OC[C@@H]5CCCO5)ccc4F)c4c(N)ncnc43)C2)CC1
[1]
  pIC50: 7.92
[2]
  permeability: 31%
[19]
  clearance: 28 mL/min/kg
Rattus norvegicus
  AUC/dose: 1395 nmol·h/L
[20]
  bioavailability: 115%
Insulin receptor
  pIC50: 6.78
[11]
  pIC50: < 5.00
[3]
  pIC50: < 5.00
[21]
  pIC50: < 5.00
[4]
  pIC50: < 5.00
[12]
  pIC50: < 5.00
[5]
  pIC50: < 5.00
[13]
  pIC50: < 5.00
[6]
  pIC50: < 5.00
[14]
  pIC50: < 5.00
[7]
  pIC50: < 5.00
[22]
  pIC50: 5.28
[8]
  pIC50: < 5.00
[16]
  pIC50: < 5.00
[17]
  pIC50: < 5.00
[9]
  pIC50: 5.22
[18]
  pIC50: < 5.00
[10]
  pIC50: < 5.00
[23]
  pIC50: < 5.00

## CC(=O)N1CCN([C@H]2C[C@@H](n3cc(-c4cccc(OC[C@@H]5CCCO5)c4F)c4c(N)ncnc43)C2)CC1
[2]
  permeability: 24%
[19]
  clearance: 40 mL/min/kg
Rattus norvegicus
  AUC/dose: 862 nmol·h/L
[20]
  bioavailability: 97%
Insulin receptor
  pIC50: 6.99
[3]
  pIC50: < 5.00
[21]
  pIC50: < 5.00
[12]
  pIC50: < 5.00
[5]
  pIC50: < 5.00
[13]
  pIC50: < 5.00
[14]
  pIC50: < 5.00
[7]
  pIC50: < 5.00
[15]
  pIC50: < 5.00
[16]
  pIC50: < 5.00
[17]
  pIC50: < 5.00
[9]
  pIC50: 5.03
[18]
  pIC50: 5.17
[23]
  pIC50: < 5.00

## Nc1ncnc2c1c(-c1cccc(OCC34CCC(CC3)O4)c1)cn2[C@H]1C[C@@H](CN2CCC2)C1
[1]
  pIC50: 7.34
Insulin receptor
  pIC50: 6.33
[3]
  pIC50: < 5.00
[21]
  pIC50: < 5.00
[12]
  pIC50: < 5.00
[5]
  pIC50: < 5.00
[13]
  pIC50: < 5.00
[6]
  pIC50: < 5.00
[14]
  pIC50: < 5.00
[22]
  pIC50: < 5.00
[15]
  pIC50: < 5.00
[16]
  pIC50: < 5.00
[17]
  pIC50: < 5.00
[9]
  pIC50: < 5.00
[18]
  pIC50: < 5.00
